The values below come from patent US10918610B2, “Compounds and methods of promoting myelination” (Case Western Reserve University, priority 2017, dated 2021).

Molecules are shown by their SMILES.

This test has as its system corpus callosum. Kind of test: LPC-induced demyelination in corpus callosum, DTI-MRI fractional anisotropy. Particulars: rats, 20 mg/kg intraperitoneal QD. It is filed as in vivo, Sprague-Dawley male rats. How it is done: In total, 30 Sprague-Dawley male rats (˜200-300 g) were infused with lysophosphatidylcholine (LPC) on the ipsilateral side and with vehicle for LPC on the contralateral side of the corpus callosum in order to induce demyelination. […] Cis-N-cyclohexyl-N-ethyl-3-(3-chloro-4-cyclohexylphenyl)prop-2-enylamine was diluted to a final concentration of 2.5% ETOH and 2.5% Kolliphor in Saline. DTI-MRI was used as a primary method to quantify the demyelinated lesion and to assess the organization of white matter in corpus callosum over time, on days 3, 10 and 15. Day 3 served as a baseline followed by repeated analyses during the therapeutic period. On day 15, the animals were euthanized and tissue samples collected. The amount of demyelination and the extent of neuronal loss were analyzed by histological analysis of MBP and Nissl substance, respectively, in corpus callosum.
Demyelination in corpus callosum was induced by stereotactic infusion of lysophospatidylcholine (LPC, Santa Cruz, Calif., USA) directly to the target tissue. First, rats were anesthetized with 5% isoflurane (in 70% N20 and 30% 02; flow 300 ml/min) and placed in a stereotactic frame. […]
Analgesics were administered during and after the surgery. […] Rats were carefully monitored by laboratory personnel twice a day and any rats prematurely fulfilling the criteria for humane end-points were euthanized during the study. […]

Take `CCN(C/C=C\c1ccc(C2CCCCC2)c(Cl)c1)C1CCCCC1` [Cis-N-cyclohexyl-N-ethyl-3-(3-chloro-4-cyclohexylphenyl)prop-2-enylamine]: the “ipsilateral FA measurements, difference between the groups at Day 15” value (Day 15) is on record as “trend in improvement”. For the same compound, the “fractional anisotropy (FA) value of the ipsilateral side (FIG. 8B)” value (days 3-15 after LPC infusion, versus vehicle) is recorded as “noticeable recovery of the FA value”.
